Here are results for 1 substance from patent publication US20220088056A1, “COMBINATION FOR TREATING CANCER” (NITTO DENKO CORPORATION, priority 2018, published 2022).

The subject of series [1] is human normal dermal fibroblasts NHDF-Ad-Der Fibroblasts. The series is described as follows: Influence on proliferation of normal cells, live and dead cell count with Hoechst 33342 / propidium iodide (Example 5). The class given is cell-based. The settings on record: 1.1+1.1 pmol, day 4 after transfection, compared with control (Compound C and Compound I), FIG. 5. As to the method:
A combination of a BcL-XL inhibitor and a miR-345-related molecule was tested for the presence or absence of its influence on the proliferation of normal cells.
The BcL-XL inhibitor used was Compound A, and the miR-345-related molecule used was Compound B. Compound C was used as a negative control of the BcL-XL inhibitor, and Compound I was used as a negative control of the miR-345-related molecule.
The normal cells used were human normal dermal fibroblasts NHDF-Ad-Der Fibroblasts (Lonza Group AG, #CC-2511). The cells were cultured in Fibroblast Basal Medium (FBM™, Lonza Group AG, #CC-3131) containing FGM™-2 SingleQuots™ (Lonza Group AG, #CC-4126) under conditions of 37° C. and 5% CO2.
Transfection with the BcL-XL inhibitor and/or the miR-345-related molecule was performed as follows: on the day before transfection, NHDF was seeded at 0.15×10^4 cells/well to a 96-well tissue culture plastic dish. […] Live and dead cell numbers were counted using Celigo® Image Cytometer (Nexcelom Bioscience, LLC, #Celigo-106-0448) in which the number of cells stained with Hoechst 33342 was regarded as the total of the live and dead cell numbers and the number of cells stained with propidium iodide was regarded as the dead cell number.

For series [2], the system named is hsa-miR-345-overexpressing HCT116 cells or control HCT116 cells. Description: Cell number counting in hsa-miR-345-overexpressing versus control HCT116 cells after transfection with BcL-XL inhibitor (Example 3). The class given is cell-based. The settings on record: 25 pmol; hsa-miR-345-overexpressing vs hsa-miR-345 wild-type HCT116 line; days 1 and 4 after transfection; FIG. 3. As to the method:
The anticancer activity of a BcL-XL inhibitor was evaluated in cancer cells in which miR-345 was overexpressed by a miR-345-related molecule.
The miR-345-related molecule used was Expression plasmid for human microRNA MIR345 (MI0000825, OriGene Technologies, Inc., Compound F).
A cell line overexpressing miR-345 was established by introducing Compound E to hsa-miR-345 wild-type HCT116 cells using Lipofectamine 3000 (Invitrogen Corp.), and picking up a single clone by drug selection. In the experiment, a clone was used which was confirmed to have the increased expression of hsa-miR-345-5p by qPCR. A hsa-miR-345 wild-type HCT116 cell line as a control was established by introducing Expression plasmid pCMV-MIR Vector (PCMVMIR, OriGene Technologies, Inc., Compound G) to hsa-miR-345 wild-type HCT116 cells using Lipofectamine 3000 (Invitrogen Corp.), and picking up a single clone by drug selection.
Transfection with Compound A was performed as follows: on the day before transfection, the hsa-miR-345-overexpressing HCT116 cells or the control HCT116 cells were seeded at 0.1×10^5 cells/well to a 6-well tissue culture plastic dish. 25 pmol of Compound A was added into 250 μL of Opti-MEM I Reduced Serum Medium (Invitrogen Corp.) and gently mixed. […] On days 1 and 4 after the transfection, the cell number was counted. […]

In the case of “Compound A: BcL-XL inhibitor: siRNA, sense 5'-GGUAUUGGUGAGUCGGAUCtt-3' (SEQ ID NO: 4), antisense 5'-GAUCCGACUCACCAAUACCtt-3' (SEQ ID NO: 5) (sense GGUAUUGGUGAGUCGGAUCTT; antisense GAUCCGACUCACCAAUACCTT; chemistry not given here)”, in series [1], the “suppression of the proliferation of normal cells” value is “neither the BcL-XL inhibitor alone or the miR-345-related molecule alone nor their concurrent use suppressed the proliferation of normal cells”. The “cell proliferation-suppressing effect (cell number)” value in series [2] is “appeared more strongly in the hsa-miR-345-overexpressing line than in the hsa-miR-345 wild-type line”.
